Source: paper PMC10403574, “Discovery of a pyrrole-pyridinimidazole derivative as novel SIRT6 inhibitor for sensitizing pancreatic cancer to gemcitabine” (Cell Death & Disease, 2023)

Legend:
[1] = target: SIRT3 (Homo sapiens, UniProt Q9NTG7); assay: Deacetylation activity selectivity, SIRT3; format: biochemical
Procedure: (§1) Fluor-De-Lys (FDL) assays were used for the examination of the deacetylation activities of sirtuins as described previously. For the detection of SIRT6 activity, the 50-μL reaction mixture contained 5 μM SIRT6, 2.5 mM NAD^+ (β-Nicotinamide adenine dinucleotide hydrate, Sigma, N1636), 75 μM RHKK-Ac-AMC (GL Biochem, Shanghai), compounds/DMSO, and assay buffer. The reactions were incubated at 37 °C for 2 h, added 50 μL stop solution (40 mM nicotinamide, 6 mg/mL trypsin) at 25 °C for 30 min. Fluorescence intensity was measured at an excitation wavelength of 360 nm and an emission wavelength of 460 nm. IC50 values were calculated in GraphPad Prism version 8.00.
(§2) Based on the above results, 8a was further investigated in this study. […] To further evaluate the selectivity of 8a for SIRT6, we examined the effect of 8a on the deacetylation activity of other HDAC family members, including HDAC1-HDAC11, SIRT1-SIRT3 and SIRT5. […] Furthermore, to confirm binding of 8a to SIRT6 in cells, we carried out the cellular thermal shift assay (CETSA). The CETSA approach builds on the thermal shift assay concept where ligand binding to its target protein enhances the target protein stability. We observed that the thermal stability of SIRT6 increased after 8a treatment (Figs. 2c, d).

[2] = target: HDAC5 (Homo sapiens, UniProt Q9UQL6); assay: Deacetylation activity selectivity, HDAC5; format: biochemical
Chain of HDAC5 (Q9UQL6 whole entry, species assumed): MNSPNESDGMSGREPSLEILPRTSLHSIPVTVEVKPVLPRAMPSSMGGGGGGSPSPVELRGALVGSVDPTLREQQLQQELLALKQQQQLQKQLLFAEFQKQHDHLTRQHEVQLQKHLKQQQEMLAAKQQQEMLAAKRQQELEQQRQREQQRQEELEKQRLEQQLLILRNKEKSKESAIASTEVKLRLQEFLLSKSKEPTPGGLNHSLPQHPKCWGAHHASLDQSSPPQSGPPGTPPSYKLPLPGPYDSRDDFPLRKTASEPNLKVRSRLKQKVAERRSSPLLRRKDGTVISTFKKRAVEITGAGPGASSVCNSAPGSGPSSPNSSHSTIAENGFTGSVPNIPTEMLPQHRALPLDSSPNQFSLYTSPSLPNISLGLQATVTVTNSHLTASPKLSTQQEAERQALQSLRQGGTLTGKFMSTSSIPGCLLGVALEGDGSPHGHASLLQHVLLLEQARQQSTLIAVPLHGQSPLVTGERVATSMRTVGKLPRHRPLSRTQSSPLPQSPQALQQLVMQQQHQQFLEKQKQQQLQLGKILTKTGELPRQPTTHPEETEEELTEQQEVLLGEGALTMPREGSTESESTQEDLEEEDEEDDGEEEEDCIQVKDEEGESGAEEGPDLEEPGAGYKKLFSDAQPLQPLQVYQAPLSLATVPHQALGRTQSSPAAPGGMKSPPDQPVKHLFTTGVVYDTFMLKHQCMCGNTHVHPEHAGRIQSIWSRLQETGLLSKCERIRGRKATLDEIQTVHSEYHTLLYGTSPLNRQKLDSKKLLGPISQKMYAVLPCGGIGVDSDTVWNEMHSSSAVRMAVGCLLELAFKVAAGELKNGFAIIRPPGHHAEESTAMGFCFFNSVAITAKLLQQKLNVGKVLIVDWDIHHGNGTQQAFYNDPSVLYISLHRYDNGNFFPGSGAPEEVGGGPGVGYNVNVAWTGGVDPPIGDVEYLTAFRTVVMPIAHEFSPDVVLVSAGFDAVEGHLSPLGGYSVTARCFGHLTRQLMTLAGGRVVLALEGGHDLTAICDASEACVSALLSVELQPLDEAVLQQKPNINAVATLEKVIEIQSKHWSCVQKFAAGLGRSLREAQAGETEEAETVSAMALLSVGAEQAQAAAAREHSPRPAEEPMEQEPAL
Text: as §2

[3] = system: SIRT6 mutants (E140A/R195A, T184A/S191A/P193A/E283A, E22A and D63A); assay: FDL assay on other SIRT6 mutants; format: biochemical, human; conditions: three mutants
Procedure: as §1
To explore the interaction mechanism, we performed the molecular docking experiment between SIRT6 (PDB ID: 6QCJ) and 8a. […] 8a mainly formed hydrogen bond with the backbone amino group of D187 and the ribose hydroxyl group of the coenzyme NAD^+, and stabilized the whole system by hydrophobic interactions with key amino acids such as I8, V70, W71, F82 and F86 (Fig. 2g). To verify this binding model, the mutant (V70A and F86A) of SIRT6 was constructed by site mutation. […] Moreover, there were also some other potential binding pockets predicted by molecular docking (data not shown). Based on the prediction, we constructed other two SIRT6 mutants (E140A/R195A and T184A/S191A/P193A/E283A). […]

[4] = system: BXPC-3 cells; assay: MTT proliferation assay, BXPC-3; format: cell-based; conditions: 72 h
Procedure: BXPC-3 and PANC-1 cells were plated in 96-well plates at 5000 cells per well. After 12 h attachment, varying concentrations of 8a were added into the culture medium for 72 h. Then 10 μL MTT (5 mg/ml) solution was added into per well for 4 h at 37 °C. After removing medium, formazan crystals were dissolved in 150 µL DMSO. The cells viability was quantified by measuring the absorbance at 570 nm.

[5] = system: BXPC-3 cells; assay: Colony formation assay; format: cell-based; conditions: dose-dependent
Procedure: The BXPC-3 cells were plated in six-well plates at 1000 cells per well. After 12 h, different concentrations of 8a, Gemcitabine or their combination were added for 7–10 days. The cells were fixed for 15 min with paraformaldehyde (4%) and then stained with crystal violet (0.1%) for 15 min at room temperature. Surviving colonies consisting of 50 or more cells were counted under microscope.

[6] = system: NIT-1 cells; assay: Cell glucose uptake assay, NIT-1; format: cell-based; conditions: NIT-1, 8a (3.125, 6.25, 12.5 μM) + insulin (100 nM) vs insulin only, 30 min
Procedure: The NIT-1 and β-TC-6 cells were added to the wells of 12-well plates and incubated overnight. Then the culture medium without FBS was incubated for 6 h, and different concentrations of 8a (3.125, 6.25, 12.5 μM), insulin (100 nM) or their combination were added for 30 min. Glucose uptake was determined using a Glucose Uptake Assay Kit (Jiancheng, Nanjing).

[7] = target: SIRT6 (Homo sapiens, UniProt Q8N6T7); assay: Fluor-De-Lys (FDL) SIRT6 deacetylation assay; format: biochemical; set-up: The human full-length SIRT6 gene was inserted into the prokaryotic expression vector (pET-28a (+)); inferred from the pET-28a(+) vector, Ni-NTA purification and Ni-NTA biosensor loading); made in house; host or cells: Escherichia coli BL21 (DE3)
Chain of SIRT6 (Q8N6T7 whole entry): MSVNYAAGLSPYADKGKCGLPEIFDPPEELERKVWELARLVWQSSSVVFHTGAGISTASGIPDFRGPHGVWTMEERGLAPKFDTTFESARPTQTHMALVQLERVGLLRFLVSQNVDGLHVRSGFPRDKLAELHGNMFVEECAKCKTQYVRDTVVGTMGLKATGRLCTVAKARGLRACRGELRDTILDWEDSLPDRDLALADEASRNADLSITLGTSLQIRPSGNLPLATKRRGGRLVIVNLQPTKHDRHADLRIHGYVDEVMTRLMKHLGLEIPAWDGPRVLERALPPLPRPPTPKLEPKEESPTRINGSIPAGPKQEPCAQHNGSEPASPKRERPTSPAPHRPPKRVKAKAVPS
Procedure: The human full-length SIRT6 gene was inserted into the prokaryotic expression vector (pET-28a (+)). The verified recombinant plasmid was transformed into Escherichia coli BL21 (DE3) expression strain and cultured overnight at 37 °C on LB plates supplemented with 50 μg/mL kanamycin. Single colonies were inoculated in fluid kanamycin-containing LB mediums. It was shaken at 160 rpm for 16 h at 37 °C and transferred to kanamycin-containing LB medium at a ratio of 1:100. It was shaken at 160 rpm at 37 °C until the OD600 reached 0.6. The Isopropyl-β-d-thiogalactopyranoside was added to make the final concentration of solution 0.5 mmol/L, cultured for 15 °C and 160 rpm for 24 h.
Bacterial liquid was harvested at 12,000 rpm at 4 °C for 20 min, and then re-suspended in Lysis buffer (20 mmol/L Hepes pH 7.5, 20 mmol/L imidazole, 5% Glycerol, 500 mmol/L NaCl). Cell pellets were disrupted by high-pressure crusher (JNBIO, Guangzhou China) and centrifuged (4 °C, 12000 rpm, for 20 min). Supernatant was collected and purified by FPLC with a 1 mL Ni–NTA Sepharose column (GE Healthcare, Stamford, USA). The SIRT6 protein was eluted at containing 50 mM, 100 mM, 150 mM, 200 mM, and 500 mM imidazole in elution buffer. The purified SIRT6 protein was dialyzed in dialysis buffer (50 mM Tris-HCl, 137 mM NaCl, 2.7 mM KCl, 1 mM MgCl2). The purified SIRT6 protein was analyzed by SDS-PAGE.
as §1

Chain of SIRT3 (Q9NTG7 whole entry, species assumed): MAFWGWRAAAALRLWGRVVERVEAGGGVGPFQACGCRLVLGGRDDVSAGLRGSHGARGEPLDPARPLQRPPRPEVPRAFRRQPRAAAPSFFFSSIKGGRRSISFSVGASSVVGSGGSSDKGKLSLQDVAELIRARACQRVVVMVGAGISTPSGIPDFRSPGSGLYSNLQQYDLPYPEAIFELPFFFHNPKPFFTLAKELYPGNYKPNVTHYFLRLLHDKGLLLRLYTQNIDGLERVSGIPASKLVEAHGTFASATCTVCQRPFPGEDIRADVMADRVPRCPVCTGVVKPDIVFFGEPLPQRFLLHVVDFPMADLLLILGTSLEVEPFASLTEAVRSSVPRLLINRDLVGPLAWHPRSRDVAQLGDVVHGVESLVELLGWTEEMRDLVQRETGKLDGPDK

SMILES: Br.CN(C)C(SCCCCCCn1cnc2c(-c3cc(Br)c(Br)[nH]3)nccc21)=[N+](C)C.[Cl-] [Compound 8a]
- IC50 [1]: > 200 µM
- IC50 [2]: > 200 µM
- effect of mutants on the inhibitory activity of 8a [3]: did not significantly affect
- IC50 [4]: 7.56 µM
- colony formation [5]: much smaller and fewer colonies
- glucose uptake [6]: no significant effect
- IC50 [7]: 7.46 ± 0.79 µM
- Inhibition rate (%) ([7]; fixed concentration of 25 μM, RHKK-Ac-AMC, NI = no inhibition): 75.6%
